“Also recorded” adds a separate entry of the source. Where a SMILES comes first, the peptide text is derived from it.

Series [1] has as its system BALB/c mice. Nature of the series: Acute Sytemic Toxicity Test (ISO 10993-11). It counts as in vivo. Also on record: hematological parameters, AST, ALT, ALP levels and gross pathology: dose or concentration left out as unconfirmed. The method, then: Senolytic Peptides were evaluated for toxicity according to Acute Sytemic Toxicity Test (ISO 10993-11). This study was performed in strict accordance with the protocol approved by the TUBITAK-MAM Animal Ethics Committee. All the mice used in this study were of a BALB/c background at 8-12 weeks of age. All mice were kept in group housing until the start of the experiment after which they were placed in separate cages (5 mice per cage). […] Control and Senolytic Peptide (SEQ ID NO: 2) injected mice were sacrificed 24 hours later for pathological examination. […] Blood samples were subsequently collected for determination and analysis of hematological and biochemical parameters. Plasma alanine aminotransferase (ALT), aspartate aminotransferase (AST), alkaline phosphatase (ALP) activities and blood urea, glucose, triglyceride levels were determined, inter alia, full hematological parameters.

The subject of series [2] is senescent and non-senescent WI-38 fibroblasts. It counts as cell-based, human. The following applies: total doses 0 to 100 μM on 3 consecutive days, read after 7 days, listed as SEQ ID NO: 11. The method, then: WI-38 cells (ATCC # CCL-75, a diploid primary human fibroblast adherent cell line derived from fetal lung tissue) were treated with a chemotherapy agent, 100 nM Doxorubicin twice every other day to induce senescence. […] Later these cells were used for experiments comparing them to their non-Doxorubicin (non-senescent) treated counterparts. Senescent and non-senescent WI-38 fibroblasts were plated for XTT viability assays. 7000 senescent (obtained as described above) and 2000 non-senescent WI-38 fibroblasts were plated in 96-well plates incubated. The cells were treated with mock (PBS) or the Senolytic Peptide (SEQ ID NO: 11) at total doses ranging from 0 to 100 μM. The mock and peptide treatments were carried out for 3 consecutive days (24, 48 and 72 hours) after plating. After treatment period, the cells were incubated for 7 days until XTT-based viability was analyzed according to the manufacturer's instructions. […] The Senolytic Peptide (SEQ ID NO: 2) was ordered from Chinese Peptide Company with TFA removal.

Turning to `N=C(N)NCCC[C@H](NC(=O)[C@H](CCCNC(=N)N)NC(=O)[C@H](CCCNC(=N)N)NC(=O)[C@H](CCC(N)=O)NC(=O)[C@H](CCCNC(=N)N)NC(=O)[C@H](CCCNC(=N)N)NC(=O)[C@H](CCCCN)NC(=O)[C@H](CCCCN)NC(=O)[C@H](CCCNC(=N)N)NC(=O)CNC(=O)[C@H](Cc1ccc(O)cc1)NC(=O)[C@H](CCCNC(=N)N)NC(=O)[C@H](CCCNC(=N)N)NC(=O)[C@H](CCCNC(=N)N)NC(=O)[C@H](CCC(N)=O)NC(=O)[C@H](CCCNC(=N)N)NC(=O)[C@H](CCCNC(=N)N)NC(=O)[C@H](CCCCN)NC(=O)[C@H](CCCCN)NC(=O)[C@H](CCCNC(=N)N)NC(=O)CNC(=O)[C@H](Cc1ccc(O)cc1)NC(=O)[C@H](CCCNC(=N)N)NC(=O)[C@H](CCCNC(=N)N)NC(=O)[C@H](CCCNC(=N)N)NC(=O)[C@H](CCC(N)=O)NC(=O)[C@H](CCCNC(=N)N)NC(=O)[C@H](CCCNC(=N)N)NC(=O)[C@H](CCCCN)NC(=O)[C@H](CCCCN)NC(=O)[C@H](CCCNC(=N)N)NC(=O)CNC(=O)[C@@H](N)Cc1ccc(O)cc1)C(=O)O` [ID 2] (H-YGRKKRRQRRRYGRKKRRQRRRYGRKKRRQRRR-OH; N-terminus and C-terminus assumed), in series [1] (intravenous single injection, 1, 10, 50 and 100 mg/kg, within 24 hours), the “toxicity to the physical appearance of the mice” value is reported as “No toxicity to the physical appearance of the mice was observed”. Besides, the “hematological parameters, AST, ALT, ALP levels and gross pathology” value in series [1] (intravenous single injection, 24 hours, even at higher doses) was “no toxicity”.

Consider TRQARRNRRRRWRERQR [ID 11], for which the “viability of senescent vs non-senescent cells (XTT)” value in series [2] is listed as “selective decrease in the viability of senescent cells but not non-senescent cells; also recorded: selectively decreased the viability of senescent cells but not non-senescent cells”.
